Assay results reported in US5858700A, “Process for the isolation and purification of lycopene crystals” (Kemin Foods, LC, priority 1997, dated 1999).

Assays:
rat = details: oral; cited from earlier work
[1] = Pigment (lycopene) stability in freeze-dried tomato skins on 6-day storage at 30° C.; type: physicochemical; details: 6 days at 30° C., hexanes extract, spectrophotometric
Text: Wet tomato skins from Siagra Co., Chengmai, Thailand (8.3 kg of the 50 lb batch used in Example 1) were freeze-dried for three days in a tray freeze-dryer (FTS Systems Inc., Stone Ridge N.Y.) to obtain freeze-dried tomato skins (2.08 kg, 24.3 percent moisture) from which five samples were taken.
The first sample of freeze-dried tomato skins was ground in a rotary meat grinder, which separated the seeds from the tomato skins. Further separation using sieves and air separation produced samples that were substantially only from the skins or the seeds of the tomatoes. The skin and seed samples were ground separately in a CYCLOTEC TECATOR™ mill (Fisher Scientific, Pittsburgh Pa.) fitted with a 0.5 mm screen, and found to contain 1328 milligrams of pigment per kilogram of tomato skins and 97 milligrams of pigment per kilogram of tomato seeds. The seeds thus contribute little to the total extractable pigment yet constitute a large portion of the total sample mass.
A second sample was left in flake form, and was dried for 6 days at 30° C. A third sample was ground in a WILEY™ mill (Fisher Scientific, Pittsburgh Pa.) fitted with a 2 mm screen and dried for 6 days at 30° C. A fourth sample was ground in a WILEY™ mill fitted with a 1 mm screen and dried for 6 days at 30° C. A fifth sample was ground in a CYCLOTEC™ mill fitted with a 0.5 mm screen and dried for 6 days at 30° C.
At the end of the treatment, all of the samples were extracted with hexanes, analyzed spectrophotometrically, and compared with the amount of lycopene present in the freeze-dried flakes before the 6-day heat treatment. The samples ground in the CYCLOTEC™ mill (<0.5 mm particles) and the WILEY™ mill (<1 mm and <2 mm particles) had more of the oxidized lycopene content than the non-ground (flake) sample: 36, 33, 36 and 25 percent pigment losses, respectively. However, none of the samples after 6 days had over 75 percent of the lycopene that was present before the treatment.

prostate cancer = details: consumption of lycopene; Giovannucci et al. 1995; cited from earlier work

Row | Structure (SMILES) | LD50 (rat) | also measured
1 | CC(C)=O [Acetone] | 10.7 mL/kg | –
2 | ClC(Cl)Cl [Chloroform] | 2.18 mL/kg | –
3 | CCOC(C)=O [Ethyl Acetate] | 11.3 mL/kg | –
4 | CC(O)CO (stereo not shown) [Propylene Glycol, 1,2-propanediol] | 25 mL/kg | –
5 | c1ccncc1 [Pyridine] | 1.58 mL/kg | –
6 | CC(C)=CCC/C(C)=C/C=C/C(C)=C/C=C/C(C)=C/C=C/C=C(C)/C=C/C=C(C)/C=C/C=C(\C)CCC=C(C)C [lycopene, .psi.,.psi.-carotene] | – | pigment losses ([1]; CYCLOTEC mill, <0.5 mm particles): 36%; pigment losses ([1]; WILEY mill, <1 mm particles): 33%; pigment losses ([1]; WILEY mill, <2 mm particles): 36%; pigment losses ([1]; non-ground (flake) sample): 25%; risk of prostate cancer (prostate cancer): reduced risk of prostate cancer
